Source: article PMC9218685, “Legume Plant Peptides as Sources of Novel Antimicrobial Molecules Against Human Pathogens” (Frontiers in Molecular Biosciences, 2022)
≈ marks a conversion by molar mass, not a printed value. Peptide text beside a SMILES is read from it.

Legend:
Assay type in all cases: cell-based
[1] = system: Acinetobacter baumannii (ATCC 17978); assay: microbe, parasite or virus in culture; settings: ATCC 17978, 3 h
In short: (§1)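 MBC, defined as the lowest concentration giving complete killing, was read after a 3 h exposure. Peptides were two-fold serially diluted starting at 25 µM and applied to roughly 10^7 log-phase bacteria in pH 7.4 potassium-phosphate buffer.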

[2] = system: Escherichia coli (ATCC 8739); settings: ATCC 8739, 3 h
In short: as §1

[3] = system: Klebsiella pneumoniae (NCTC 13440); settings: NCTC 13440, 3 h
In short: as §1

[4] = system: Listeria monocytogenes (ATCC 19111); settings: ATCC 19111, 3 h
In short: as §1

[5] = system: Pseudomonas aeruginosa (ATCC 27853); settings: ATCC 27853, 3 h
In short: as §1

[6] = system: Salmonella enterica (ATCC 13076); settings: ATCC 13076, 3 h
In short: as §1

[7] = system: E. coli, S. enteritidis, P. aeruginosa, L. monocytogenes, S. aureus, E. faecalis, K. pneumoniae and A. baumannii; assay: Antimicrobial activity assay, spectrum over the eight tested pathogenic bacteria; settings: 3 h treatment of ~10^7 log phase bacteria, peptides 25 to 0.8 µM; active = MBC ≤25 µM
In short: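 Log-phase bacteria (~10^7) treated 3 h with NCR peptides in potassium-phosphate buffer pH 7.4, two-fold dilutions from 25 µM to 0.8 µM. MBC is the lowest concentration completely eliminating viable bacteria. Strains: E. faecalis ATCC 29212, S. aureus HNCMO112011, L. monocytogenes ATCC 19111, P. aeruginosa ATCC 27853, E. coli ATCC 8739, S. enterica ATCC 13076, K. pneumoniae NCTC 13440, A. baumannii ATCC 17978.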

[8] = system: Staphylococcus aureus (HNCMO112011); settings: HNCMO112011, 3 h
In short: as §1

SMILES	MBC Acinetobacter baumannii [1] [µM]	MBC Escherichia coli [2] [µM]	MBC Klebsiella pneumoniae [3] [µM]	MBC Listeria monocytogenes [4] [µM]	MBC Pseudomonas aeruginosa [5] [µM]	MBC Salmonella enterica [6] [µM]	Antibacterial spectrum over the eight tested bacterial strains [7]	MBC Staphylococcus aureus [8] [µM]
CC[C@H](C)[C@H](NC(=O)[C@H](CC(C)C)NC(=O)[C@H](CC(N)=O)NC(=O)[C@@H](NC(=O)[C@H](CS)NC(=O)[C@H](Cc1ccc(O)cc1)NC(=O)CNC(=O)[C@H](CCCCN)NC(=O)[C@H](CCCNC(=N)N)NC(=O)[C@H](CS)NC(=O)[C@H](CCCNC(=N)N)NC(=O)[C@@H](NC(=O)[C@H](CC(N)=O)NC(=O)[C@H](CCSC)NC(=O)CNC(=O)[C@H](C)NC(=O)[C@H](CCCNC(=N)N)NC(=O)[C@H](CCCNC(=N)N)NC(=O)[C@@H](NC(=O)[C@H](CS)NC(=O)[C@H](CC(=O)O)NC(=O)[C@H](CCCCN)NC(=O)[C@H](CC(=O)O)NC(=O)[C@@H](NC(=O)[C@@H](NC(=O)[C@H](CS)NC(=O)[C@@H]1CCCN1C(=O)[C@H](CC(N)=O)NC(=O)[C@@H]1CCCN1C(=O)[C@@H](NC(=O)[C@H](Cc1c[nH]cn1)NC(=O)[C@H](CO)NC(=O)[C@H](Cc1ccc(O)cc1)NC(=O)[C@@H](N)Cc1ccccc1)C(C)C)[C@@H](C)CC)[C@@H](C)O)[C@@H](C)CC)[C@@H](C)CC)C(C)C)C(=O)N[C@@H](CC(C)C)C(=O)N[C@@H](CCCNC(=N)N)C(=O)O [NCR700] (H-FYSHVPNPCITDKDCIRRAGMNIRCRKGYCVNLILR-OH; N-terminus assumed)	1.6 (≈ 6.76 µg/mL)	3.125 (≈ 13.2 µg/mL)	12.5 (≈ 52.8 µg/mL)	1.6 (≈ 6.76 µg/mL)	6.25 (≈ 26.4 µg/mL)	12.5 (≈ 52.8 µg/mL)	active against all strains except S. aureus and E. faecalis	–
CSCC[C@H](NC(=O)[C@H](Cc1ccccc1)NC(=O)[C@H](CCCCN)NC(=O)[C@@H]1CCCN1C(=O)[C@H](CS)NC(=O)[C@H](CCCNC(=N)N)NC(=O)CNC(=O)[C@H](CC(=O)O)NC(=O)[C@H](CCCNC(=N)N)NC(=O)CNC(=O)[C@H](CS)NC(=O)[C@H](CC(C)C)NC(=O)[C@@H](NC(=O)[C@H](CCCNC(=N)N)NC(=O)[C@@H](N)CCSC)C(C)C)C(=O)N[C@@H](CS)C(=O)N[C@@H](CCCNC(=N)N)C(=O)N[C@H](C(=O)N[C@@H](Cc1ccccc1)C(=O)N[C@@H](CC(C)C)C(=O)O)[C@@H](C)O [NCR280] (H-MRVLCGRDGRCPKFMCRTFL-OH; N-terminus assumed)	1.6 (≈ 3.82 µg/mL)	3.125 (≈ 7.47 µg/mL)	25 (≈ 59.8 µg/mL)	3.125 (≈ 7.47 µg/mL)	12.5 (≈ 29.9 µg/mL)	3.125 (≈ 7.47 µg/mL)	active against all strains except S. aureus and E. faecalis	–
CC(C)C[C@H](NC(=O)[C@H](CS)NC(=O)[C@H](CCCCN)NC(=O)CNC(=O)[C@@H](N)Cc1ccccc1)C(=O)N[C@@H](CCCCN)C(=O)N[C@@H](CC(C)C)C(=O)N[C@@H](CCCCN)C(=O)N[C@@H](CS)C(=O)N[C@H](C(=O)N[C@@H](Cc1ccc(O)cc1)C(=O)N[C@H](C(=O)N1CCC[C@H]1C(=O)N[C@@H](CCCCN)C(=O)N[C@@H](CCCNC(=N)N)C(N)=O)[C@@H](C)O)C(C)C [GoNCR308 (16-30)] (H-FGKCLKLKCVYTPKR-NH2; N-terminus assumed)	3.125 (≈ 5.57 µg/mL)	3.125 (≈ 5.57 µg/mL)	25 (≈ 44.6 µg/mL)	–	3.125 (≈ 5.57 µg/mL)	3.125 (≈ 5.57 µg/mL)	–	50 (≈ 89.2 µg/mL)
